Earlier results in patent US9445622B2, “Compositions and methods for improving creatine solubility and stability” (Glanbia Nutritionals (Ireland) Ltd., priority 2009, dated 2016).

Settings: solid form, over years, even at elevated temperatures

For `CN(CC(=O)O)C(=N)N.O` [creatine monohydrate powder, creatine monohydrate], the “stability of solid powder” value is given as “no signs of degradation”.
